Measurements as given in US9969749B2, “Inhibitors of IRAK4 activity” (MERCK SHARP & DOHME CORP., priority 2014, dated 2018).

What follows are compounds tested against IRAK4 (Homo sapiens (Human), UniProt Q9NWZ3) (assay: IRAK4 Kinase Assay (IMAP fluorescence polarization)). Details: 0.5 nM GST tagged IRAK4, 100 μM ATP, 100 nM fluorescent peptide substrate RP7030, 30 minutes at 25° C.
IRAK4, sequence (Q9NWZ3 whole entry): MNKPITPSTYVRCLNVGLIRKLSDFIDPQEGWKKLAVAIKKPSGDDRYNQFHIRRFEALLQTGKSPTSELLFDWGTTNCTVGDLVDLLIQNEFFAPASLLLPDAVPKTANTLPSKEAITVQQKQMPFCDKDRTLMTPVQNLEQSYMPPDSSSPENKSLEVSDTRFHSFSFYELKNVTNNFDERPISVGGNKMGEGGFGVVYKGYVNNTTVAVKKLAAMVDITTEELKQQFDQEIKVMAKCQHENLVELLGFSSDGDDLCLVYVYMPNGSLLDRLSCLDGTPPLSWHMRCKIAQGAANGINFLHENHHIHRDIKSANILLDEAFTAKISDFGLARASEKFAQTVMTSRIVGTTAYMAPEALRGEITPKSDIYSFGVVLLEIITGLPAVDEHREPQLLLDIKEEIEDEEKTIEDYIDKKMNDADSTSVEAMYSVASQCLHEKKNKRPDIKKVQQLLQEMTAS
Assay type: biochemical
Description: The kinase activity of IRAK4 is determined by its ability to catalyze the phosphorylation of a fluorescent polypeptide substrate. The extent of phosphorylation is measured using the IMAP technology (Molecular Devices) where the phosphorylated fluorescent substrate binds to the large M(III)-based nanoparticles which reduces the rotational speed of the substrate and thus increases its fluorescent polarization (FP).
20 μL reaction mixture contains 10 mM TriHCl, pH 7.2, 0.5 nM GST tagged IRAK4 (SignalChem), 100 nM fluorescent peptide substrate (RP7030, Molecular Devices), 100 μM ATP, 1 mM DDT, 1 mM MgCl2, and 0.01% Tween 20. The reaction is initiated by the addition of ATP. After incubation for 30 minutes at 25° C., 60 μL of Progressive IMAP Reagent (Molecular Devices) is added to stop the reaction. Change in RP7030's FP is determined by a FP reader (Analyst HT, LJL BioSystems).
Work on CN(C)[C@H]1CC[C@H](Nc2ncnc3ccc(-c4cnccc4C(F)(F)F)cc23)CC1 [Example 1-36, trans-N,N-dimethyl-N′-{6-[4-(trifluoromethyl)pyridin-3-yl]quinazolin-4-yl}cyclohexane-1,4-diamine] yielded an IC50 of 19 nM.
Work on CN(C)[C@H]1CC[C@H](Nc2ncnc3ccc(-c4cncc(C(=O)O)c4)cc23)CC1 [Example 1-37, 5-(4-{[trans-4-(dimethylamino)cyclohexyl]amino}quinazolin-6-yl)pyridine-3-carboxylic acid] yielded an IC50 of 504 nM.
With COc1cnccc1-c1ccc2ncnc(N[C@H]3CC[C@H](N(C)C)CC3)c2c1 [Example 1-38, trans-N′-[6-(3-methoxypyridin-4-yl)quinazolin-4-yl]-N,N-dimethylcyclohexane-1,4-diamine] the IC50 was 71 nM.
CN(C)[C@H]1CC[C@H](Nc2ncnc3ccc(-c4cccnc4C#N)cc23)CC1 [Example 1-39, 3-(4-{[trans-4-(dimethylamino)cyclohexyl]amino}quinazolin-6-yl)pyridine-2-carbonitrile] gave an IC50 of 43 nM.
For COCCOc1cncc(-c2ccc3ncnc(N[C@H]4CC[C@H](N(C)C)CC4)c3c2)c1 [Example 1-40, trans-N′-{6-[5-(2-methoxyethoxy)pyridin-3-yl]quinazolin-4-yl}-N,N-dimethylcyclohexane-1,4-diamine], the IC50 was 83 nM.
CN(C)[C@H]1CC[C@H](Nc2ncnc3ccc(-c4cncc(S(C)(=O)=O)c4)cc23)CC1 [Example 1-41, trans-N,N-dimethyl-N′-{6-[5-(methylsulfonyl)pyridin-3-yl]quinazolin-4-yl}cyclohexane-1,4-diamine] was tested, and the IC50 was 2350 nM.
Work on CN(C)[C@H]1CC[C@H](Nc2ncnc3ccc(-c4cnc(NC5CC5)nc4)cc23)CC1 [Example 1-42, trans-N′-{6-[2-(cyclopropylamino)pyrimidin-5-yl]quinazolin-4-yl}-N,N-dimethylcyclohexane-1,4-diamine] yielded an IC50 of 11 nM.
CN(C)[C@H]1CC[C@H](Nc2ncnc3ccc(-c4cnc(NCCO)nc4)cc23)CC1 [Example 1-43, 2-{[5-(4-{[trans-4-(dimethylamino)cyclohexyl]amino}quinazolin-6-yl)pyrimidin-2-yl]amino}ethanol] showed an IC50 of 25 nM.
CN(C)[C@H]1CC[C@H](Nc2ncnc3ccc(-c4cccc(C#N)c4)cc23)CC1 [Example 1-44, 3-(4-{[trans-4-(dimethylamino)cyclohexyl]amino}quinazolin-6-yl)benzonitrile] gave an IC50 of 32 nM.
CN(C)[C@H]1CC[C@H](Nc2ncnc3ccc(-c4ccc5[nH]ccc5c4)cc23)CC1 [Example 1-45, trans-N′-[6-(1H-indol-5-yl)quinazolin-4-yl]-N,N-dimethylcyclohexane-1,4-diamine] gave an IC50 of 81 nM.
c1cncc(-c2ccc3ncnc(N[C@H]4CC[C@H](N5CCOCC5)CC4)c3c2)c1 [Example 1-46, N-[trans-4-(morpholin-4-yl)cyclohexyl]-6-(pyridin-3-yl)quinazolin-4-amine] gave an IC50 of 19 nM.
Compound c1ncc(-c2ccc3ncnc(N[C@H]4CC[C@H](N5CCOCC5)CC4)c3c2)cn1 [Example 1-47, N-[trans-4-(morpholin-4-yl)cyclohexyl]-6-(pyrimidin-5-yl)quinazolin-4-amine] has an IC50 of 3 nM.
c1cc(-c2ccc3ncnc(N[C@H]4CC[C@H](N5CCOCC5)CC4)c3c2)ccn1 [Example 1-48, N-[trans-4-(morpholin-4-yl)cyclohexyl]-6-(pyridin-4-yl)quinazolin-4-amine] showed an IC50 of 9 nM.
Compound CN(C)[C@H]1CC[C@H](Nc2ncnc3ccc(-c4ccc5c(c4)OCCO5)cc23)CC1 [Example 1-49, trans-N′-[6-(2,3-dihydro-1,4-benzodioxin-6-yl)quinazolin-4-yl]-N,N-dimethylcyclohexane-1,4-diamine] has an IC50 of 161 nM.
CN(C)[C@H]1CC[C@H](Nc2ncnc3ccc(-c4ccnnc4)cc23)CC1 [Example 1-50, trans-N,N-dimethyl-N′-[6-(pyridazin-4-yl)quinazolin-4-yl]cyclohexane-1,4-diamine] was tested, and the IC50 was 11 nM.
COc1cncc(-c2ccc3ncnc(N[C@H]4CC[C@H](N(C)C)CC4)c3c2)c1 [Example 1-51, trans-N′-[6-(5-methoxypyridin-3-yl)quinazolin-4-yl]-N,N-dimethylcyclohexane-1,4-diamine] showed an IC50 of 25 nM.
Work on COc1ncc(-c2ccc3ncnc(N[C@H]4CC[C@H](N(C)C)CC4)c3c2)cc1F [Example 1-52, trans-N′-[6-(5-fluoro-6-methoxypyridin-3-yl)quinazolin-4-yl]-N,N-dimethylcyclohexane-1,4-diamine] yielded an IC50 of 200 nM.
CN(C)[C@H]1CC[C@H](Nc2ncnc3ccc(-c4cncc(F)c4)cc23)CC1 [Example 1-53, trans-N′-[6-(5-fluoropyridin-3-yl)quinazolin-4-yl]-N,N-dimethylcyclohexane-1,4-diamine] gave an IC50 of 24 nM.
Work on CN(C)[C@H]1CC[C@H](Nc2ncnc3ccc(-c4cncc(C#N)c4)cc23)CC1 [Example 1-54, 5-(4-{[trans-4-(dimethylamino)cyclohexyl]amino}quinazolin-6-yl)pyridine-3-carbonitrile] yielded an IC50 of 46 nM.
For CN(C)[C@H]1CC[C@H](Nc2ncnc3ccc(-c4cnc5[nH]ccc5c4)cc23)CC1 [Example 1-55, trans-N,N-dimethyl-N′-[6-(1H-pyrrolo[2,3-b]pyridin-5-yl)quinazolin-4-yl]cyclohexane-1,4-diamine], the IC50 was 46 nM.
With CN(C)[C@H]1CC[C@H](Nc2ncnc3ccc(-c4cncc(C(=O)NC(C)(C)C)c4)cc23)CC1 [Example 1-56, N-tert-butyl-5-(4-{[trans-4-(dimethylamino)cyclohexyl]amino}quinazolin-6-yl)pyridine-3-carboxamide] the IC50 was 129 nM.
Work on CN1CCOc2cc(-c3ccc4ncnc(N[C@H]5CC[C@H](N(C)C)CC5)c4c3)cnc21 [Example 1-57, trans-N,N-dimethyl-N′-[6-(4-methyl-3,4-dihydro-2H-pyrido[3,2-b][1,4]oxazin-7-yl)quinazolin-4-yl]cyclohexane-1,4-diamine] yielded an IC50 of 6730 nM.
In the case of CN(C)[C@H]1CC[C@H](Nc2ncnc3ccc(-c4cnc5[nH]ncc5c4)cc23)CC1 [Example 1-58, trans-N,N-dimethyl-N′-[6-(1H-pyrazolo[3,4-b]pyridin-5-yl)quinazolin-4-yl]cyclohexane-1,4-diamine], the IC50 is reported as 21 nM.
Compound CN(C)[C@H]1CC[C@H](Nc2ncnc3ccc(-c4cnc5cc[nH]c5c4)cc23)CC1 [Example 1-59, trans-N,N-dimethyl-N′-[6-(1H-pyrrolo[3,2-b]pyridin-6-yl)quinazolin-4-yl]cyclohexane-1,4-diamine] has an IC50 of 124 nM.
Cn1cnc2cc(-c3ccc4ncnc(N[C@H]5CC[C@H](N(C)C)CC5)c4c3)cnc21 [Example 1-60, trans-N,N-dimethyl-N′-[6-(3-methyl-3H-imidazo[4,5-b]pyridin-6-yl)quinazolin-4-yl]cyclohexane-1,4-diamine] showed an IC50 of 1690 nM.
With CN(C)[C@H]1CC[C@H](Nc2ncnc3ccc(-c4cnc5ccoc5c4)cc23)CC1 [Example 1-61, trans-N′-[6-(furo[3,2-b]pyridin-6-yl)quinazolin-4-yl]-N,N-dimethylcyclohexane-1,4-diamine] the IC50 was 109 nM.
CN(C)[C@H]1CC[C@H](Nc2ncnc3ccc(-c4cc(F)cc(F)c4)cc23)CC1 [Example 1-62, trans-N′-[6-(3,5-difluorophenyl)quinazolin-4-yl]-N,N-dimethylcyclohexane-1,4-diamine] was tested, and the IC50 was 23 nM.
For CN(C)[C@H]1CC[C@H](Nc2ncnc3ccc(-c4cc(O)cc(F)c4)cc23)CC1 [Example 1-63, 3-(4-{[trans-4-(dimethylamino)cyclohexyl]amino}quinazolin-6-yl)-5-fluorophenol], the IC50 was 3 nM.
In the case of CN(C)[C@H]1CC[C@H](Nc2ncnc3ccc(-c4cc(O)c(F)c(F)c4)cc23)CC1 [Example 1-64, 5-(4-{[trans-4-(dimethylamino)cyclohexyl]amino}quinazolin-6-yl)-2,3-difluorophenol], the IC50 is reported as 4 nM.
Work on Oc1cncc(-c2ccc3ncnc(N[C@H]4CC[C@H](N5CCOCC5)CC4)c3c2)c1 [Example 1-65, 5-(4-{[trans-4-(morpholin-4-yl)cyclohexyl]amino}quinazolin-6-yl)pyridin-3-ol] yielded an IC50 of less than 0.5 nM.
Oc1cc(F)cc(-c2ccc3ncnc(N[C@H]4CC[C@H](N5CCOCC5)CC4)c3c2)c1 [Example 1-66, 3-fluoro-5-{4-[(trans-4-morpholin-4-ylcyclohexyl)amino]quinazolin-6-yl}phenol] was tested, and the IC50 was 5 nM.
In the case of Oc1cc(-c2ccc3ncnc(N[C@H]4CC[C@H](N5CCOCC5)CC4)c3c2)ccn1 [Example 1-67, 4-{4-[(trans-4-morpholin-4-ylcyclohexyl)amino]quinazolin-6-yl}pyridin-2-ol], the IC50 is reported as 15 nM.
Compound Fc1cc(F)cc(-c2ccc3ncnc(N[C@H]4CC[C@H](N5CCOCC5)CC4)c3c2)c1 [Example 1-68, 6-(3,5-difluorophenyl)-N-(trans-4-morpholin-4-ylcyclohexyl)quinazolin-4-amine] has an IC50 of 25 nM.
Compound COc1cncc(-c2ccc3ncnc(N[C@H]4CC[C@H](N5CCOCC5)CC4)c3c2)c1 [Example 1-69, 6-(5-methoxypyridin-3-yl)-N-[trans-4-(morpholin-4-yl)cyclohexyl]quinazolin-4-amine] has an IC50 of 18 nM.
Oc1cc(-c2ccc3ncnc(N[C@H]4CC[C@H](N5CCOCC5)CC4)c3c2)cc(F)c1F [Example 1-70, 2,3-difluoro-5-{4-[(trans-4-morpholin-4-ylcyclohexyl)amino]quinazolin-6-yl}phenol] gave an IC50 of 5 nM.
Work on COc1ncc(-c2ccc3ncnc(N[C@H]4CC[C@H](N5CCOCC5)CC4)c3c2)cc1N [Example 1-71, 6-(5-amino-6-methoxypyridin-3-yl)-N-(trans-4-morpholin-4-ylcyclohexyl)quinazolin-4-amine] yielded an IC50 of 17 nM.
